The source of these data is patent publication US3996205A, “Aminoglycoside antibiotics and intermediates” (The Upjohn Company, priority 1975, dated 1976).

One test concerns K. pneumoniae UC 58. Kind of test: microplate test in BHI agar, K. pneumoniae UC 58. Type of test: cell-based. The note with it: tested again (table 4), same conditions. The protocol:
(§1) Compounds were also tested in a standard microplate test in Brain Heart Infusion (BHI) Agar, at a concentration of 1 mg/ml. Incubation is at 37° and end points are read at 20 hours. Brain Heart Infusion Agar (supplied by Difco Laboratories, Detroit, Michigan, U.S.A.) has the following composition:
(§2) Compounds (7β), (7α) and (9) were tested again along with compounds (11) and (14β) against a neamine control using the same conditions as given above.

The test system of a further test is S. typhi TG-3. The test can be described thus: microplate test in BHI agar, S. typhi TG-3. It is filed as cell-based. The note with it: table 4, same conditions. How it is done:
as §1, §2

A further test has as its system P. rettgeri UC 339. The test can be described thus: microplate test in BHI agar, P. rettgeri UC 339. It is filed as cell-based. The note with it: table 4, same conditions. How it is done:
as §1, §2

Another test concerns S. hemolyticus UC 152. The test can be described thus: microplate test in BHI agar, S. hemolyticus UC 152. Type of test: cell-based, Streptococcus hemolyticus. The following applies: tested again (table 4), same conditions. How it is done:
as §1, §2

Turning to `NC[C@H]1O[C@H](O[C@H]2[C@H](O)[C@@H](O)[C@H](N)C[C@@H]2N)[C@H](N)[C@@H](O)[C@@H]1O` [Neamine, neamine], the “Minimum Inhibitory Concentration” value in the test with K. pneumoniae UC 58 came out at 3.9 µg/mL; in the test on S. typhi TG-3, 15.6 µg/mL; in the test on P. rettgeri UC 339, 1000 µg/mL; in the test on S. hemolyticus UC 152 it was 3.9 µg/mL.
